Results from publication PMC2746281 (PLoS ONE, 2009).

How the values were obtained:
[1] = tested on: Salmonella typhimurium and Escherichia coli; settings: cited from earlier work
[2] = tested on: human cord-blood-derived mast cells (CBMC); test: TNF-α release by IgE-anti IgE-activated CBMC (ELISA); assay type: cell-based; settings: Mast cell, 4 hours of stimulation
Method: (§1) (see Supporting Information; Methods S1). […] Assays of β-hexosaminidase release and TNF-α release were made by stimulating the CBMC with 1 µg/ml of goat anti-human IgE (Vector Laboratories) for 30 minutes or 4 hours, respectively. β-hexosaminidase was measured in the supernatant and in the sonicated cell pellets and its net release calculated. For TNF-α determination, the cell-free supernatants were collected by centrifugation and frozen at −80°C until determination of mediator content by the use of a specific ELISA kit according to manufacturer's instructions (Coulter, France). All assays were performed in duplicate and counts were repeated twice for each well.
(§2) Human CBMC were produced by long-term culture of CD34+ progenitors purified from normal cord-blood. […] At the beginning of the culture, rhIL-3 (1 ng/ml) (R&D Systems Europe, France) was also added to induce maximal expansion of haematopoietic progenitors. After 3 days the IL-3 was removed and 4 days later cells were transferred to a complete serum-free medium containing rmSCF at 100 ng/ml, which was renewed every 7 days thereafter. After 8 weeks in culture ≥99% of the cells were identified as being mast cells by May-Grünwald-Giemsa staining of cytocentrifuged samples.

[3] = tested on: human cord-blood-derived mast cells (CBMC); test: FcεRI-mediated degranulation (β-hexosaminidase release) of IgE-anti IgE activated CBMC; assay type: cell-based; settings: Mast cell, 0.5 h, 30 minutes of stimulation
Method: as §1, §2

Cc1ccc(NC(=O)c2ccc(CN3CCN(C)CC3)cc2)cc1Nc1nccc(-c2cccnc2)n1 [imatinib, reference compound]
bacterial reverse mutation test [1]: positive
inhibition at 0.1 µM ([2]; 0.1 µM): 4%
inhibition at 1 µM ([2]; 1.0 µM): 24%
inhibition at 10 µM ([2]; 10 µM): 45%
inhibition at 0.1 µM ([3]; 0.1 µM): 2%
inhibition at 1 µM ([3]; 1.0 µM): 8%
inhibition at 10 µM ([3]; 10 µM): 19%
